The values below come from patent US6242428A, “Nucleoside analogs and uses in treating Plasmodium falciparum infection” (Unisearch Limited, priority 1998, dated 2001).

Series [1] is described as follows: Solubility remark in the in vitro testing. Conditions: Tables 1 and 6.
For series [2], the system named is human prostate phosphotransferase. To be noted: cited from earlier work.
Series [3] concerns P. falciparum. The series can be described thus: In vitro toxicity against P. falciparum in culture (radiolabelled hypoxanthine incorporation / lactate dehydrogenase assay). Conditions: for IC50: Plasmodium falciparum. In kind it is cell-based, Plasmodium falciparum, FCQ27. The procedure: P. falciparum, FCQ27, was maintained in culture using the techniques described by Trager & Jensen (W. Traqer and J. B. Jensen, Science, 193 673-675 (1976)). Cultures containing 2% hematocrit suspensions of parasitized human type O^+ erythrocytes in RPMI 1640 medium, supplemented with 25 mM HEPES-KOH, pH 7.2, 25 mM NaHCO3 and 10% human type O^+ serum (v/v) are maintained in modular incubator chambers at 37° C. in a gas mixture of 5% O2, 5% CO2 and 90% N2. The isolate of P. falciparum used in these experiments was FCQ27, routinely maintained in synchronized or asynchronous in vitro cultures at low hematocrit.
The potential toxicity of nucleoside analogues against P. falciparum in culture was tested in microtitre plates over the range of drug concentrations for 24 hours. The procedures for monitoring parasite viability is well established (A. M. Gero, H. V. Scott, W. J. O'Sullivan and R. I. Christopherson, Mol. Biochem. Parasitol. 34, 87-89 (1989)) and is based on radiolabelled hypoxanthine or isoleucine incorporation. The incorporation of [G-^3 H]hypoxanthine into the nucleic acids of P. falciparum was used to assess the viability of the parasite in vitro. Microculture plates were prepared with each well containing 225 μl of a 2% hematocrit culture of asynchronous parasited erythrocytes (1% parasitized cells). Each plate, containing varying concentrations of the drug to be studied (up to 200 μM final concentration for initial screen), was incubated for 24 h at 37° C. in a gas mixture of 5% O2, 5% CO2 and 90% N2, at which point [G-^3 H] hypoxanthine was added to each well and the incubation continued under identical conditions for a further 18-20 h. The control infected cells (i.e. without drug), routinely reached a parasitemia of 6-8% before harvesting. Expediency was aided by 96-well plate counter using lactate dehydrogenase for the drug susceptibility assay (L. K. Basco, F. Marguet, M. T. Makler and J. Lebbras, Exp. Parasitol. 80, 260-271 (1995); M. T. Makler and D. J. Hinrichs; Am. J. Trop. Med. Hyg. 48, 205-210 (1993)). This assay gave the identical results to the hypoxanthine technique. In addition, for each experiment, microscopic counting of Giemsa stained thin slides was used as a control.
The biological screen involved evaluation of the compounds against the protozoan P. falciparum in in vitro culture. The range of drug concentrations was used independently by two assays. One, radiolabelled hypoxanthine incorporation into the nucleic acid of P. falciparum, and the other, more expedient assay, a 96-well plate susceptibility assay using lactate dehydrogenase. Both assays gave identical results. In addition, microscopic counting of Giemsa stained thin slides was used as a control. Examples of experimental curves are attached as Appendix 2. The biological tests were done at several concentrations. The highest concentration was 200 μM, the compounds were considered active at concentrations less than 40 μM.

Series [4] has as its system P. falciparum strain D6 (chloroquin non-resistant). The series is described as follows: U.S. Army Antimalarial Test Program in vitro screen, strain D6. In kind it is cell-based, Plasmodium falciparum. Conditions: 15 dimers, D6 and W2 stated together. The text has this:
(§1) Fifteen L-nucleoside dimers (L-101, L-103, L-103A, L-107, L-110, L-111, L-112, L-114, L-117, L-120, L-122, L-124, L-125, L-133 & L-138) from Lipitek's library were submitted for in vitro screen to the U.S. Army Antimalarial Test Program (for the structures of the compounds, see FIG. 7). The compounds have been tested for their activity against two P. falciparum strains: D6 (chloroquin non-resistant) and W2 (chloroquin resistant).

For series [5], the system named is P. falciparum strain W2 (chloroquin resistant). The series is described as follows: U.S. Army Antimalarial Test Program in vitro screen, strain W2. The format is cell-based, Plasmodium falciparum. Conditions: 15 dimers, D6 and W2 stated together.
From the text: as §1

Series [6] relates to P. falciparum infected erythrocytes (trophozoites). The format is in vitro ADME, human erythrocytes infected with Plasmodium falciparum. The procedure:
(§2) The metabolism of the L-nucleoside conjugates was studied by HPLC analysis. The primary aim was to determine their ability to be catabolized by parasite purine salvage enzymes. Some effect on the purine metabolic pools was also observed.
(§3) For each HPLC determination 200 μL of packed cells of 80-90% trophozoite infected cells were used. These were isolated from in vitro cultures by synchronization of the parasites in in vitro cultures using sterile D-sorbitol (L. Lambros and J. P. Vanderberg, Parasitol. 65, 418-420 (1979)) followed by separation of the trophozoites from non infected erythrocytes by Percoll gradients as described previously (A. M. Gero, H. V. Scott, W. J. O'Sullivan and R. I. Christopherson, Mol. Biochem. Parasitol. 34, 87-89 (1989)). Trophozoites were incubated at 37° C. for 2 hours with each compound to be tested. Compounds were incubated with both whole infected cells as whole and lyzed uninfected normal erythrocytes to determine:
a) entry to the cell (whether they were transported);
Drug incubation was terminated by centrifugation through silicon oil using the method of Upston and Gero (J. M. Upston and A. M. Gero, Biochem. Biophys. Acta. 1236, 249-258 (1995)). This procedure separated intact trophozoites from extracellular non-transported drug solution.
(§4) The metabolism of nucleosides with potential chemotherapeutic activity was assessed by the analysis of cytoplasmic samples by reverse phase ion-pair high performance liquid chromatography (R. S. Toguzov, Y. V. Tikhonov, A. M. Pimenov, V. Prokudin, Journal of Chromatography, I. Biomedical Appl. 434, 447-453 (1988)). Nucleotides, nucleosides and bases were separated by this HPLC method.
It has been established that transport and uptake in parasite invaded cells is different from that of normal blood erythrocytes (A. M. Gero & A. M. Wood, In: Pyrine & Pyrimidine Methabolism in Man VII, Part A. (R. A. Harkness et al., Eds) Plenum Press, NY, 169-172 (1991)). Invasion by the malaria parasite comprises the cell membrane, allowing penetration of unnatural substances of various size and shape, whereas normal cells are very selective in uptake. It was shown that L-nucleosides and their derivatives easily penetrate invaded cells, while they have a very slow rate of uptake into normal cells, if they enter at all. In order to obtain preliminary data on transport, uptake and metabolism, the HPLC method was used to analyze the following 10 Lipitek compounds: L-101, L-103, L-109, L-111, L-117, L-133, L-138, GCl 1007, GCl 1027, GCl 1069.
(§5) These compounds were chosen for the identification of possible metabolites. In this experiment the compounds were incubated with both whole infected cells, and with whole and lysed uninfected cells, followed by the separation of unreacted compound and HPLC analysis.

Series [7] shares this test system. In kind it is in vitro ADME, human erythrocytes infected with Plasmodium falciparum. On the procedure:
as §2, §3
b) the metabolic effect within the cell (was the compound metabolized);
as §4, §5
This is another data set of the same source.

Series [8] relates to erythrocyte infected with P. falciparum. To be noted: cited from earlier work.
The test system of series [9] is normal erythrocytes and other cell types. Conditions: cited from earlier work.

Read-outs that look alike come from different tables or passages of the source.

As to β-L-FUdR 3'-5'SATE [B05], in series [1], the “Solubility (printed in the IC50/ID50 column)” value is given as “Solubility problem”.
As to `O=c1ccn([C@H]2O[C@@H](CO)[C@H](O)[C@@H]2O)c(=O)[nH]1` [β-L-uridine], the “phosphorylation at the 5'-position” value in series [2] was “not phosphorylated at the 5'-position”.
As to `Nc1ncnc2c1ncn2[C@@H]1C[C@@H](OP(=O)(O)OC[C@H]2O[C@@H](n3cc(F)c(=O)[nH]c3=O)C[C@@H]2O)[C@H](CO)O1` [L-138, β-L-dA, β-D-FUdR], the “In vitro activity against P. falciparum, in words” value in series [3] is listed as “most active”. Also, the IC50 in [3] (24 h, Table 1, 24 h drug exposure, up to 200 μM, read-out: IC50) was determined as 5 µM; in [3] (Table 2, FUdR linkage position 5', read-out: IC50), 5 µM; in [3] (Table 3, β-L configuration of the L-nucleoside, read-out: IC50), 5 µM; in series [3] (Table 4, Phosphate "bridge" O=P--O, read-out: IC50) it was 5 µM; in [3] (Table 4, Phosphorothioate "bridge" S=P--O, read-out: IC50) it was 100 µM. The “toxicity against P. falciparum, in words” value in [3] (statement in the transport and metabolism study) is “toxic against P. falciparum”. The “activity ranking in words, strain D6” value in series [4] is recorded as “most active”. Further, in series [5], the “activity ranking in words, strain W2” value is given as “most active”. The “entry to the infected cell” value in series [6] is given as “entered the infected cells”. Besides, in series [7], the “metabolism by the infected cells” value was “metabolized by the infected cells”.
In the case of `Nc1ncnc2c1ncn2[C@H]1O[C@@H](CO)[C@H](O)[C@@H]1O` [GCI 1032, β-L-adenosine], in [3] (24 h), the IC50 was above 200 µM. For the same compound, in [8], the “transport into infected erythrocyte” value is “selectively transported into an erythrocyte infected with P. falciparum”. Besides, the “permeability/uptake of normal erythrocytes and other cells” value in series [9] is listed as “completely impermeable”.
For the compound α-L-FUdR 3'-5'SATE [B07], in [1], the “Solubility (printed in the IC50/ID50 column)” value is “Solubility problem”.
